In brackets after ≈: the same amount, converted by molar mass. One block for each molecule: values may come before it. Activity calls are given as the source filed them. The rule behind the calls is not given here.
Assays:
Streptococcus mutans [1] = assay: Antibacterial activity against Streptococcus mutans ATCC 25175 measured after overnight incubation by two-fold serial dilution method; assay type: functional
Streptococcus mutans [2] = assay: Antibacterial activity against Streptococcus mutans ATCC 25175 assessed as time delay in bacterial growth at MIC, 2 times MIC and 4 times MIC; assay type: functional
Staphylococcus aureus [3] = assay: Antibacterial activity against methicillin-resistant Staphylococcus aureus ATCC 43300 assessed as delay in bacterial growth at 4 times MIC after 10 mins; assay type: functional, organism-based
Streptococcus mutans [4] = assay: Antibiofilm activity against Streptococcus mutans ATCC 25175 assessed as formation of oviod cells at MBIC concentration by uranyl acetate-staining based electron microscopy; assay type: functional, organism-based
Streptococcus mutans [5] = assay: Antibacterial activity against Streptococcus mutans ATCC 25175 measured assessed as inhibition of colony formation at 5 to 20 ug/ml after 24 hrs; assay type: functional, organism-based
Streptococcus mutans [6] = assay: Antibacterial activity against Streptococcus mutans ATCC 25175 measured assessed as reduction in bacterial viability at 5 to 20 ug/ml after 24 hrs by MTT assay; assay type: functional
Staphylococcus aureus [7] = assay: Bacteriostatic activity against methicillin-resistant Staphylococcus aureus ATCC 43300 assessed as log reduction in colony forming units at 15 to 20 ug/ml after 24 hrs; assay type: functional, organism-based
Streptococcus mutans [8] = assay: Antibiofilm activity against Streptococcus mutans ATCC 25175 assessed as down-regulation of gtfB gene expression by semi-quantitative PCR analysis; assay type: functional, organism-based
Staphylococcus aureus [9] = assay: Antibiofilm activity against methicillin-resistant Staphylococcus aureus ATCC 43300 assessed as disruption of biofilm at 10 to 12 ug/ml by fluorescence microscopy; assay type: functional, organism-based
Streptococcus mutans [10] = assay: Potency index, ratio of cefixime MIC to test compound MIC for Streptococcus mutans ATCC 25175; assay type: functional
Staphylococcus aureus [11] = assay: Antibacterial activity against methicillin-resistant Staphylococcus aureus ATCC 43300 measured after overnight incubation by two-fold serial dilution method; assay type: functional
Streptococcus mutans [12] = assay: Antibiofilm activity against Streptococcus mutans ATCC 25175 assessed as down-regulation of gtfC gene expression by semi-quantitative PCR analysis; assay type: functional, organism-based
Staphylococcus aureus [13] = assay: Antibacterial activity against methicillin-resistant Staphylococcus aureus ATCC 43300 assessed as inhibition of colony formation at 4 to 16 ug/ml measured after 24 hrs; assay type: functional, organism-based
Streptococcus mutans [14] = assay: Potency index, ratio of 6 amino penicillinic acid MIC to test compound MIC for Streptococcus mutans ATCC 25175; assay type: functional
Staphylococcus aureus [15] = assay: Antibacterial activity against methicillin-resistant Staphylococcus aureus ATCC 43300 assessed as delay in bacterial growth at 2 times MIC after 10 mins; assay type: functional, organism-based
Staphylococcus aureus [16] = assay: Antibiofilm activity against methicillin-resistant Staphylococcus aureus ATCC 43300 assessed as formation of broken chains at MBIC concentration by uranyl acetate-staining based electron microscopy; assay type: functional, organism-based
Streptococcus mutans [17] = assay: Bactericidal activity against Streptococcus mutans ATCC 25175 measured after overnight incubation; assay type: functional
Staphylococcus aureus [18] = assay: Potency index, ratio of cefixime MIC to test compound MIC for methicillin-resistant Staphylococcus aureus ATCC 43300; assay type: functional
Staphylococcus aureus [19] = assay: Potency index, ratio of gentamycin sulphate MIC to test compound MIC for methicillin-resistant Staphylococcus aureus ATCC 43300; assay type: functional
Streptococcus mutans [20] = assay: Antibacterial activity against Streptococcus mutans ATCC 25175 assessed as log reduction in bacterial count at 10 ug/ml measured after 24 hrs relative to control; assay type: functional
Streptococcus mutans [21] = assay: Antibacterial activity against Streptococcus mutans ATCC 25175 assessed as reduction in acid production at 0.5 times MIC and MIC measured up to 24 hrs; assay type: functional, organism-based
Staphylococcus aureus [22] = assay: Antibiofilm activity against methicillin-resistant Staphylococcus aureus ATCC 43300 measured after overnight incubation by crystal violet-staining based assay; assay type: functional
Streptococcus mutans [23] = assay: Bacteriostatic activity against Streptococcus mutans ATCC 25175 assessed as log reduction in colony forming units at 12 to 16 ug/ml after 24 hrs; assay type: functional, organism-based
Streptococcus mutans [24] = assay: Antibiofilm activity against Streptococcus mutans ATCC 25175 assessed as down-regulation of luxS gene expression by semi-quantitative PCR analysis; assay type: functional, organism-based
Streptococcus mutans [25] = assay: Antibiofilm activity against Streptococcus mutans ATCC 25175 assessed as disruption of biofilm at 10 to 12 ug/ml by fluorescence microscopy; assay type: functional, organism-based
Klebsiella pneumoniae [26] = assay: Antibacterial activity against Klebsiella pneumoniae ATCC 13882 measured after overnight incubation by two-fold serial dilution method; assay type: functional
Staphylococcus aureus [27] = assay: Bactericidal activity against methicillin-resistant Staphylococcus aureus ATCC 43300 measured after overnight incubation; assay type: functional
Staphylococcus aureus [28] = assay: Antibacterial activity against methicillin-resistant Staphylococcus aureus ATCC 43300 assessed as reduction in acid production at 0.5 times MIC and MIC measured up to 24 hrs; assay type: functional, organism-based
Staphylococcus aureus [29] = assay: Antibacterial activity against methicillin-resistant Staphylococcus aureus ATCC 43300 assessed as log reduction in bacterial count at 8 ug/ml measured after 24 hrs; assay type: functional
Staphylococcus aureus [30] = assay: Antibiofilm activity against methicillin-resistant Staphylococcus aureus ATCC 43300 assessed as down-regulation of IcaA gene expression by semi-quantitative PCR analysis; assay type: functional, organism-based
Streptococcus mutans [31] = assay: Antibiofilm activity against Streptococcus mutans ATCC 25175 measured after overnight incubation by crystal violet-staining based assay; assay type: functional
Staphylococcus aureus [32] = assay: Potency index, ratio of 6 amino penicillinic acid MIC to test compound MIC for methicillin-resistant Staphylococcus aureus ATCC 43300; assay type: functional
Staphylococcus aureus [33] = assay: Antibacterial activity against methicillin-resistant Staphylococcus aureus ATCC 43300 assessed as reduction in bacterial viability at 4 to 16 ug/ml measured after 24 hrs by MTT assay; assay type: functional
Staphylococcus aureus [34] = assay: Antibacterial activity against methicillin-resistant Staphylococcus aureus ATCC 43300 assessed as delay in bacterial growth at MIC after 10 mins; assay type: functional, organism-based
Streptococcus mutans [35] = assay: Antibiofilm activity against Streptococcus mutans ATCC 25175 assessed as formation of broken chains at MBIC concentration by uranyl acetate-staining based electron microscopy; assay type: functional, organism-based
Staphylococcus aureus [36] = assay: Antibiofilm activity against methicillin-resistant Staphylococcus aureus ATCC 43300 assessed as formation of oviod cells at MBIC concentration by uranyl acetate-staining based electron microscopy; assay type: functional, organism-based
Proteus mirabilis [37] = assay: Antibiofilm activity against Proteus mirabilis ATCC 12453 measured after overnight incubation by crystal violet-staining based assay; assay type: functional
Proteus mirabilis [38] = assay: Antibiofilm activity against Proteus mirabilis ATCC 12453 at >= 50 ug/ml measured after overnight incubation by crystal violet-staining based assay; assay type: functional, organism-based
Proteus mirabilis [39] = assay: Antibacterial activity against Proteus mirabilis ATCC 12453 measured after overnight incubation by two-fold serial dilution method; assay type: functional
Klebsiella pneumoniae [40] = assay: Antibiofilm activity against Klebsiella pneumoniae ATCC 13882 at >= 50 ug/ml measured after overnight incubation by crystal violet-staining based assay; assay type: functional, organism-based

- MIC (Streptococcus mutans [1]): inactive
SMILES: CC1=CCC[C@@H]2[C@@](C)(CCC3=CC(=O)OC3Nc3ccc(F)cc3)[C@H](C)CC[C@@]12C (mixture of isomers)

- MIC (Streptococcus mutans [1]): inactive
SMILES: CC1=CCC[C@@H]2[C@@](C)(CC/C(C)=C/C(=O)O)[C@H](C)CC[C@@]12C

- MIC (Streptococcus mutans [1]): inactive
SMILES: CC1=CCC[C@@H]2[C@@](C)(CCC3=CC(=O)OC3Nc3ccc(-c4ccc(NC5OC(=O)C=C5CC[C@@]5(C)[C@H](C)CC[C@@]6(C)C(C)=CCC[C@H]56)c(C)c4)cc3C)[C@H](C)CC[C@@]12C (mixture of isomers)

SMILES: CC1=CCC[C@@H]2[C@@](C)(CC/C(C=O)=C\C(=O)O)[C@H](C)CC[C@@]12C
- Time (Streptococcus mutans [2]): >=8 hr
- Activity (Staphylococcus aureus [3]): Active
- Activity (Streptococcus mutans [4]): Active
- Activity (Streptococcus mutans [5]): Active
- Activity (Streptococcus mutans [6]): <=90%
- Activity (Staphylococcus aureus [7]): Active
- Activity (Streptococcus mutans [8]): Active
- Activity (Staphylococcus aureus [9]): Active
- Ratio (Streptococcus mutans [10]): 5
- MIC (Staphylococcus aureus [11]): 16 µg/mL (≈ 50.2 µM)
- Activity (Streptococcus mutans [12]): Active
- Activity (Staphylococcus aureus [13]): Active
- Ratio (Streptococcus mutans [14]): 5
- Activity (Staphylococcus aureus [15]): Active
- MIC (Streptococcus mutans [1]): 20 µg/mL (≈ 62.8 µM)
- Activity (Staphylococcus aureus [16]): Active
- MBC (Streptococcus mutans [17]): 185 µg/mL (≈ 581 µM)
- Ratio (Staphylococcus aureus [18]): 5
- Ratio (Staphylococcus aureus [19]): 5
- Activity (Streptococcus mutans [20]): 7.5 - 8 log10CFU/ml
- Activity (Streptococcus mutans [21]): Active
- Activity (Staphylococcus aureus [22]): 94.26%
- MBIC (Staphylococcus aureus [22]): 16 µg/mL
- Activity (Streptococcus mutans [23]): Active
- Activity (Streptococcus mutans [24]): Active
- Activity (Streptococcus mutans [25]): Active
- MIC (Klebsiella pneumoniae [26]): inactive
- MBC (Staphylococcus aureus [27]): 95 µg/mL (≈ 298 µM)
- Activity (Staphylococcus aureus [28]): Active
- Activity (Staphylococcus aureus [29]): 9 log10CFU/ml
- Activity (Staphylococcus aureus [30]): Active
- Activity (Streptococcus mutans [31]): 92.06%
- MBIC (Streptococcus mutans [31]): 20 µg/mL
- Ratio (Staphylococcus aureus [32]): 5
- Activity (Staphylococcus aureus [33]): <=90%
- Activity (Staphylococcus aureus [34]): Active
- Activity (Streptococcus mutans [35]): Active
- Activity (Staphylococcus aureus [36]): Active

SMILES: CC1=CCC[C@@H]2[C@@](C)(CCC3=CC(=O)OC3Nc3ccccc3F)[C@H](C)CC[C@@]12C (mixture of isomers)
- MIC (Staphylococcus aureus [11]): 45 µg/mL
- Activity (Proteus mirabilis [37]): 62.5%
- MBIC (Proteus mirabilis [37]): 90 µg/mL
- MIC (Streptococcus mutans [1]): 50 µg/mL
- Activity (Proteus mirabilis [38]): Active
- MIC (Proteus mirabilis [39]): 125 µg/mL
- Activity (Klebsiella pneumoniae [40]): Active
- Activity (Staphylococcus aureus [22]): 76.25%
- MIC (Klebsiella pneumoniae [26]): inactive
- Activity (Streptococcus mutans [31]): 69.05%
- MBIC (Streptococcus mutans [31]): 45 µg/mL
